Some test systems named below: 786-0 renal; A498 renal; COLO 205 colon; HCT-15 colon; HT29 colon; MALME-3M melanoma; MDA-N; NCI-H23 lung; RXF 393 renal; U251 CNS; UACC-257 melanoma.
What all share (assay): NCI-60 cell line screen, 48 h

Structures are written as SMILES.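 In this assay, cells in 96-well plates receive the compound at five concentrations for 48 hours. Endpoints are linearly interpolated between the surrounding concentrations. TGI: concentration producing complete growth inhibition.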

As to `CC/C(Cl)=N\OC(=O)Nc1ccc(F)cc1F`, the TGI with 786-0 renal turned out to be 8.77 µM; with A498 renal, 74.8 µM; with COLO 205 colon, 3.6 µM; in the experiment on HCT-15 colon, 5.24 µM; in the experiment on HT29 colon, 51.2 µM; in the experiment on MALME-3M melanoma, 12 µM. The TGI was 12.6 µM in the experiment on MDA-N; 46.5 µM with NCI-H23 lung; 27.7 µM with RXF 393 renal; 55.6 µM with U251 CNS; 34.2 µM in the experiment with UACC-257 melanoma.

Consider `[N-]=[N+]=C(C(=O)C(=[N+]=[N-])C(=O)c1ccccc1)C(=O)c1ccccc1`, for which the TGI with 786-0 renal, with COLO 205 colon, in the experiment on HCT-15 colon, with HT29 colon, in the experiment on MALME-3M melanoma and with MDA-N was greater than 100 µM each time. The TGI with NCI-H23 lung, in the experiment with RXF 393 renal and in the experiment with UACC-257 melanoma was greater than 100 µM throughout.

For the molecule `COc1ccc(C2=C(OC(=O)N(C)C)c3cccn3-c3cc(Cl)ccc3S2)cc1`, the TGI in the experiment with 786-0 renal, in the experiment on COLO 205 colon, in the experiment on HCT-15 colon, in the experiment on HT29 colon, in the experiment with MALME-3M melanoma and with MDA-N was greater than 10 µM in each case. The TGI in the experiment on NCI-H23 lung, in the experiment on RXF 393 renal and with UACC-257 melanoma was greater than 10 µM throughout.

As to `CC12CC(c3ccccc3O1)C(C(=O)Nc1cccc(F)c1)C(=O)N2` (configuration not stated), the TGI in the experiment on 786-0 renal, with A498 renal, in the experiment on COLO 205 colon, in the experiment on HCT-15 colon, in the experiment on HT29 colon and in the experiment with MALME-3M melanoma was greater than 100 µM throughout. Besides, the TGI with MDA-N is greater than 100 µM; in the experiment on NCI-H23 lung it was 79.3 µM; in the experiment with U251 CNS, greater than 100 µM; with UACC-257 melanoma it was greater than 100 µM.

As to `COC(=O)c1c(OC)cc2cc3c(c(O)c2c1C)C(=O)C1(O)C(=O)C=C(OC)C(OC(=O)CC(C)N)=C1C3=O` (configuration not stated), the TGI with 786-0 renal is greater than 100 µM; with COLO 205 colon it was greater than 100 µM; with HCT-15 colon, greater than 100 µM; in the experiment with HT29 colon it was 43.7 µM; in the experiment with MDA-N, greater than 100 µM; with NCI-H23 lung it was greater than 100 µM. The TGI in the experiment on U251 CNS and in the experiment with UACC-257 melanoma was greater than 100 µM each time.

On to `Cc1cc(S(=O)(=O)O)c(NC(=O)c2oc3cc(O)ccc3c(=O)c2C)cc1Cl`, for which the TGI in the experiment with 786-0 renal, in the experiment on HCT-15 colon, with HT29 colon, with MALME-3M melanoma, with MDA-N and in the experiment on NCI-H23 lung was greater than 100 µM throughout. The TGI in the experiment on RXF 393 renal, with U251 CNS and in the experiment on UACC-257 melanoma was greater than 100 µM each time.

Consider `CCOC(=O)CCCn1cc(C(=O)OC)nn1`, for which the TGI in the experiment with 786-0 renal, in the experiment on COLO 205 colon, with HCT-15 colon, in the experiment on HT29 colon, with MALME-3M melanoma and in the experiment with MDA-N was greater than 100 µM in each case. Also, the TGI with NCI-H23 lung, with RXF 393 renal, with U251 CNS and in the experiment with UACC-257 melanoma was greater than 100 µM each time.

For `C=C1CC(Cn2cc(Br)c(=O)[nH]c2=O)(c2ccc(-c3ccccc3)cc2)OC1=O` (configuration not stated), the TGI came to 2.29 µM with 786-0 renal; 2.33 µM with A498 renal; 2.23 µM in the experiment on COLO 205 colon; 3.8 µM in the experiment with HCT-15 colon; 1.91 µM with HT29 colon; 3.06 µM in the experiment on MALME-3M melanoma. In addition, the TGI with MDA-N amounted to 2.35 µM; with NCI-H23 lung it was 3.4 µM; in the experiment on U251 CNS it was 18.4 µM; in the experiment with UACC-257 melanoma, 2.53 µM.

Turning to `CCCCCCOP(=O)(OCCCCCC)OC(C(=O)OC)C(F)(F)F` (configuration not stated), the TGI with 786-0 renal, in the experiment with COLO 205 colon, with HCT-15 colon, in the experiment on HT29 colon, with MALME-3M melanoma and in the experiment on MDA-N was greater than 100 µM in each case. Besides, the TGI in the experiment with NCI-H23 lung, with U251 CNS and with UACC-257 melanoma was greater than 100 µM each time.

`COc1ccc(-c2nc(-c3cnccn3)n(C3OC(CO)C(O)C(O)C3O)n2)cc1` (configuration not stated): the TGI in the experiment with 786-0 renal, with COLO 205 colon, in the experiment with HCT-15 colon, in the experiment with HT29 colon, in the experiment with MDA-N and with NCI-H23 lung was greater than 100 µM each time. Moreover, the TGI with RXF 393 renal, in the experiment with U251 CNS and in the experiment on UACC-257 melanoma was greater than 100 µM each time.

As to `CC12CC(C/C1=N/O)C(C)(C)C2` (configuration not stated), the TGI with 786-0 renal, with A498 renal, in the experiment with COLO 205 colon, with HT29 colon, with MALME-3M melanoma and with MDA-N was greater than 100 µM each time. Moreover, the TGI with NCI-H23 lung, in the experiment on RXF 393 renal, in the experiment on U251 CNS and with UACC-257 melanoma was greater than 100 µM each time.

For `CNc1ccc(S(=O)Nc2ccccc2)cc1` (configuration not stated), the TGI with 786-0 renal is greater than 100 µM; in the experiment with COLO 205 colon, 83.5 µM; with HCT-15 colon, greater than 100 µM; in the experiment on HT29 colon it was greater than 100 µM; in the experiment with MALME-3M melanoma, greater than 100 µM; in the experiment on MDA-N, greater than 100 µM. The TGI in the experiment on NCI-H23 lung, in the experiment with U251 CNS and with UACC-257 melanoma was greater than 100 µM in each case.

`COC(=O)C(C(=O)C(=O)NC1Nc2ccc(C)cc2S1)c1nc2ccc(Cl)cc2[nH]c1=O` (configuration not stated): the TGI in the experiment on 786-0 renal, with A498 renal, in the experiment with HCT-15 colon, in the experiment with HT29 colon, in the experiment on MALME-3M melanoma and in the experiment on MDA-N was greater than 100 µM throughout. The TGI with NCI-H23 lung, with RXF 393 renal, in the experiment on U251 CNS and in the experiment with UACC-257 melanoma was greater than 100 µM each time.

As to `C=CCOC(=O)CCCCCCCCCCCCCCCOC(=O)C1=C(CCC[C@@H](C)O[Si](C)(C)C(C)(C)C)NC(=O)N2[C@H](CC3(CC/C=C\[C@H](CC)O[Si](C(C)C)(C(C)C)C(C)C)OCCO3)CC[C@H]12`, the TGI in the experiment with 786-0 renal, in the experiment on A498 renal, in the experiment on COLO 205 colon, with HCT-15 colon, with MALME-3M melanoma and in the experiment with MDA-N was greater than 100 µM throughout. The TGI in the experiment with NCI-H23 lung, in the experiment on U251 CNS and with UACC-257 melanoma was greater than 100 µM in each case.

The values are drawn from PubChem BioAssay (NCI).
